These are literature values, as cited in US11622958B2, “Bifunctional prodrugs” (GEORG-AUGUST-UNIVERSITÄT GÖTTINGEN STIFTUNG ÖFFENTLICHEN …, priority 2015, dated 2023).

Molecules are shown by their SMILES.

Test in data set [1]: not given
This is another data set of the same source.

The term IC50 denotes the concentration at which inhibition is half-maximal. As for `COc1c(O)c2c(c3cc(C(=O)N4CCc5c4c(O)c(OC)c4[nH]c(C(=O)N6CC7CC78C6=CC(=O)c6[nH]cc(C)c68)cc54)[nH]c13)CCN2C(N)=O` (centres unmarked) [CC-1065], the IC50 is 0.02 nM. For the same compound, the “hepatotoxicity in animal experiments” value in data set [1] was “delayed lethal hepatotoxicity”.
